Measured values taken from patent US9815883B2, “Inhibiting peptides derived from TREM-like transcript 1 (TLT-1) and uses thereof” (Institut National de la Sante et de la Recherche Medicale …, priority 2010, dated 2017).

Legend:
[1] = system: TREM-1 ligand expressed on resting or thrombin-activated human platelets; assay: Flow cytometry binding of FITC-labelled peptides to human platelets
Protocol: (B) Flow cytometry analysis of FITC-labelled LR17 (1 or 5 μg/mL) binding to TREM-1 ligand expressed on resting or thrombin-activated (5 UI/mL) human platelets is reversed by co-incubation with unlabelled LR17, sTLT-1 or LP17, a TREM-1 derived peptide.
Acid Citrate Dextrose blood samples were centrifuged (100 g, 10 min) to obtain Platelet-Rich Plasma. PRP was then centrifuged (550 g, 10 min) over a 36% (wt/vol) BSA gradient and platelets collected from the interphase before being washed in Tyrode's salts buffer (Sigma-Aldrich) supplemented with 5 mM EGTA. For activation, platelets were incubated for 30 minutes with 5 U/mL thrombin (Sigma-Aldrich) or 1 μg/mL E. Coli LPS (0111:B4, Sigma-Aldrich) at 37° C. and subsequently fixed with 2% (wt/vol) paraphormaldehyde (PFA, Sigma-Aldrich). Residual PFA was removed by two additional washing steps in Tyrode buffer. Activation was assessed by anti-CD62P (Beckman Coulter).
Isolated cells (neutrophils, monocytes or platelets) were blocked for aspecific binding with 10% human Ig (Sigma-Aldrich) for 1 hour on ice. Cells were incubated with recombinant soluble FITC-labelled TLT-1-peptides, FITC-labelled LP17 (or corresponding FITC-labelled scrambled peptides), PE-labelled anti-TREM-1 mAb (R&Dsystems), CD62P-FITC, CD66b-PE, CD45-PE, CD14-FITC (all from Beckman Coulter)

TREM-1 = assay: Protein phosphorylation analysis in stimulated neutrophils; type: cell-based, human
Protocol: For these experiments, isolated human neutrophils were stimulated with TREM-1 agonist (αTREM-1, 5 μg/mL) with or without LR17 (30 μg/mL) or control LR17-scrambled peptide (30 μg/mL) at indicated times. Data are representative of at least 5 different experiments. Results are mean±SD. p values are ***p<0.001 **p<0.01 *p<0.05 [αTREM-1+LR17] versus [αTREM-1].
(A) Activation of TREM-1 phosphorylation pathway: Western Blot of lysates of neutrophils stimulated for 1, 3, 10, 30 and 60 minutes, analysed with antibody to phospho (p)-p38 and (p)-ERK1/2.
For these experiments, isolated human neutrophils or monocytes were stimulated with LPS (0.1 μg/mL) and TREM-1 agonist (αTREM-1, 5 μg/mL) with or without LR17 (30 μg/mL) or control LR17-scrambled peptide (30 μg/mL), at indicated times. Data are representative of at least 5 different experiments. Results are mean±SD. p values are ***p<0.001 **p<0.01 *p<0.05 [LPS/LR17] versus [LPS] or [LPS+αTREM-1/LR17] versus [LPS+αTREM-1].
(A) Western Blot of lysates of neutrophils stimulated for 1, 3, 10, 30 and 60 minutes, analysed with antibody to phosphor (p)-p38 and (p)-ERK1/2.
Depending on the experiment, cells were stimulated in complete medium supplemented with 100 ng/mL of E. Coli LPS (0111:B4, Sigma-Aldrich), anti-TREM-1 mAb (R&Dsystems) and TLT-1-peptides at different times and concentrations on 96-wells plates (Greiner Bio One). Supernatants were collected for cytokine measurements and cells subjected to flow cytometry or lysed for protein phosphorylation analyses and NFkB activity measurement.
Stimulated PMNs were lysed at 1, 3, 10, 30 and 60 minutes with PhosphoSafe Extraction Reagent (Novagen) and centrifuged for 5 minutes at 16,000 g at 4° C. to collect the supernatant. Protein concentration was determined according to Bradford's method (Pierce). […] Alternatively, PMNs were analyzed after 20 minutes of stimulation for a panel of multiple phosphorylated proteins by immunoblot (Human Phospho-Kinase Array, R&Dsystems). Acquisition and quantitative signals density analyses were done by LAS-4000 imager and Multi-Gauge software (Fujifilm).

male Balb/c mice = assay: Caecal ligation and puncture (CLP) polymicrobial sepsis model; type: in vivo, mouse
Protocol: Adult male Balb/c mice (20-23 g) were subjected to caecal ligation and puncture under isoflurane anaesthesia and were randomly grouped (n=5-10 per group) to receive a single LR17 (100 μg in 0.2 mL NaCl 0.9%), scrambled-LR17 ([…] in 0.2 mL NaCl 0.9%), or 0.2 mL NaCl 0.9% i.p. injection. After 24 hours, animals were killed under anaesthesia. Results are mean±SD. p values are *p<0.05, **p<0.01, ***p<0.001 compared with control animals.
(A-B) Adult male Balb/c mice (20-23 g) were subjected to caecal ligation and puncture under isoflurane anaesthesia and were randomly grouped (n=25-40 per group) to receive a LR17, scrambled-LR17, or 0.2 mL NaCl 0.9% i.p. injection at indicated times. Survival was monitored over 1 wk and analyzed by Log Rank test.
Male Balb/c mice (4-6 weeks) were anesthetized with isoflurane. The cecum was exposed through a 1.0 cm abdominal midline incision and subjected to a ligation of the distal half followed by one puncture with a G21 needle. A small amount of stool was expelled from the puncture to ensure patency. The cecum was replaced into the peritoneal cavity and the abdominal incision closed in two layers. After surgery, all mice were injected s.c. with 0.5 mL of 0.9% NaCl solution for fluid resuscitation. The animals were randomly grouped and treated LR17 or LR17-scrambled as control in 250 μL 0.9% NaCl solution and administered i.p. In order to determine the effect of various doses of LR17 at different times, mice were treated with 50, 100 or 200 μg of LR17 at H1 after surgery, or with 3 injections of 100 μg at 2, 6 and 24 hours or with 100 μg in one injection at 24 hours after CLP and then monitored for survival. Five additional animals per group were killed under anaesthesia at 24 h after CLP for the determination of bacterial count and cytokines levels. Peritoneal lavage fluid was obtained using 2 mL RPMI 1640 (EuroBio), and blood was collected by cardiac puncture. Concentrations of plasma cytokines were determined by ELISA (R&Dsystems). For the assessment of bacterial counts, blood and crushed spleen were plated in serial log dilutions on tryptic soy supplemented with 5% sheep blood agar plates. After plating, tryptic soy agar plates were incubated at 37° C. aerobically for 24 h and anaerobically for 48 h. Results are expressed as CFU per ml of blood or per gram of spleen.

[2] = competition with unlabelled substance

LQEEDAGEYGCMVDGAR (listed as Homo sapiens) [LR17]
binding of FITC-labelled LR17 to platelets ([1]; FITC-labelled peptide 1 or 5 μg/mL, resting or thrombin-activated (5 UI/mL) platelets): binds both to resting and thrombin-activated platelets | effect of co-incubation on FITC-labelled LP17 binding to platelets [1, 2]: decreased | effect of co-incubation on FITC-labelled LR17 binding to platelets [1, 2]: reversed | phosphorylation of p38 and ERK1/2 (TREM-1; LPS 0.1 μg/mL with or without αTREM-1, peptide 30 μg/mL): decreased | phosphorylation of mTOR, Lyn, AKT, MSK1/2, MEK 1/2, GSK 3α/β, RSK, and p53 (phosphoprotein arrays) (TREM-1; TREM-1 signalling, data not shown): reduced | p38 MAPK and ERK 1/2 phosphorylation (TREM-1; αTREM-1 5 μg/mL, peptide 30 μg/mL, 1-60 minutes): partly abrogated | plasma IL-6 and IL-10 concentrations (male Balb/c mice; 100 μg i.p. 2 hours after surgery, 24 hours after surgery): decreased | repeated injections versus single dose administration (male Balb/c mice; 3 injections of 100 μg at 2, 6 and 24 hours): not superior | protection against lethality (survival) (male Balb/c mice; 50, 100 or 200 μg, also administered 24 h after onset of sepsis, survival over 1 wk, Log Rank test): dose-dependent significant protection | septicaemia (blood bacterial counts) (male Balb/c mice; 24 hours): almost completely prevented septicaemia | IL-6 and IL-10 in broncho-alveolar lavage fluid and peritoneal lavage fluid (male Balb/c mice; 24 hours after surgery): decreased | lung histological alterations (male Balb/c mice; 24 hours after the CLP): attenuated | cell infiltration in peritoneum and alveolar space (male Balb/c mice; mouse, in vivo): reduced | coagulation abnormalities (D-dimer and TATc plasma and alveolar concentrations) (male Balb/c mice; mouse, in vivo): prevented | plasma levels of C5a, IL-1ra, IL16, MCP-1, MIP-la, MIP-2 (cytokine array) (male Balb/c mice; mouse, in vivo): decreased concentration
